Measured values reported in patent US8481584B2, “1H-thieno[2,3-c]pyrazole derivatives useful as kinase inhibitors” (Nerviano Medical Sciences S.R.L., priority 2004, dated 2013).
Read-outs that look alike come from different tables or passages of the source.

Columns and labels:
Aurora-2 = target: T1, Aurora-2 (Homo sapiens, UniProt O14965); assay: Inhibition assay of Aurora-2 activity (SPA technology); assay type: biochemical
T1 sequence (O14965 1-403): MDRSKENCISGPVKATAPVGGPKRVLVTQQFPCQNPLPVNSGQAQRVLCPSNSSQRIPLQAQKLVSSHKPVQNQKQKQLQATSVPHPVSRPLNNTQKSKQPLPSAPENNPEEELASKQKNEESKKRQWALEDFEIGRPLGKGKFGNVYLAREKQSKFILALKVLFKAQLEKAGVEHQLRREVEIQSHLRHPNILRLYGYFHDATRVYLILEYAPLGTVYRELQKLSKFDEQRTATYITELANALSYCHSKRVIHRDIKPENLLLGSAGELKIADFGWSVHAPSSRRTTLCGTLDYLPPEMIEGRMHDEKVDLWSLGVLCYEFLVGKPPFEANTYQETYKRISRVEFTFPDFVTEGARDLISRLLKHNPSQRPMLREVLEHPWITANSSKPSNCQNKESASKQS
Protocol: The inhibiting activity and the potency of selected compounds is determined through a method of assay based on the use of the SPA technology (Amersham Pharmacia Biotech).
The assay consists of the transfer of radioactivity labelled phosphate moiety by the kinase to a biotinylated substrate. The resulting 33P-labelled biotinylated product is allowed to bind to streptavidin-coated SPA beads (biotin capacity 130 pmol/mg), and light emitted was measured in a scintillation counter.
Inhibition Assay of Aurora-2 Activity
After 60 minutes at room temperature incubation, reaction was stopped and biotinylated peptide captured by adding 100 μl of bead suspension.
Stratification: 100 μl of CsCl2 5 M were added to each well and let stand 4 hour before radioactivity was counted in the Top-Count instrument.
Experimental data were analyzed by the computer program GraphPad Prizm using the four parameter logistic equation: y=bottom+(top−bottom)/(1+10^((logIC50−x)*slope)) where x is the logarithm of the inhibitor concentration, y is the response; y starts at bottom and goes to top with a sigmoid shape.

[1] = test system: human colon cancer cell line HCT-116; assay: In vitro cell proliferation assay; assay type: cell-based; settings: HCT-116, 72 hours of treatment, cell count, read-out: Cell Antiproliferation IC50
Protocol: The compounds of the invention were further tested, in vitro, to assess the anti-proliferative effect onto cell cultures.
In Vitro Cell Proliferation Assay
The human colon cancer cell line HCT-116 was seeded at 5000 cells/cm2 in 24 wells plate (Costar) using F12 medium (Gibco) supplemented with 10% FCS (EuroClone, Italy) 2 mM L-glutamine and 1% penicillin/streptomycin and maintained at 37° C., 5% CO2 and 96% relative humidity. The following day, plates were treated in duplicates with 5 ul of an appropriate dilution of compounds starting from a 10 mM stock in DMSO. Two untreated control wells were included in each plate. After 72 hours of treatment, medium was withdrawn and cells detached from each well using 0.5 mL of 0.05% (w/v) Trypsin, 0.02% (w/v) EDTA (Gibco). Samples were diluted with 9.5 mL of Isoton (Coulter) and counted using a Multisizer 3 cell counter (Beckman Coulter). Data were evaluated as percent of the control wells: % of CTR=(Treated−Blank)/(Control−Blank).
IC50 values were calculated by LSW/Data Analysis using Microsoft Excel sigmoidal curve fitting.

[2] = SPA assay, 10 μM ATP, 60 minutes at room temperature, read-out: Aurora-2 inhibition IC50
[3] = screened according to the methods of the pharmacology section, read-out: IC50 values for Aurora-2 inhibition

| IC50 (Aurora-2; [2]) [nM] | IC50 (Aurora-2; [3]) [nM] | IC50 [1] [nM] | SMILES |
| --- | --- | --- | --- |
| 1 | < 20 | 2 | CN1CCN(c2ccc(C(=O)Nc3n[nH]c4sc(C(=O)NC(C)(C)c5ccccc5)cc34)cc2)CC1 [Compound 29, N-(1-methyl-1-phenylethyl)-3-{[4-(4-methylpiperazin-1-yl)benzoyl]amino}-1H-thieno[2,3-c]pyrazole-5-carboxamide] |
| 3 | < 20 | 56 | CC(C)(NC(=O)c1cc2c(NC(=O)c3cccs3)n[nH]c2s1)c1ccccc1 [Compound 16, N-(1-methyl-1-phenylethyl)-3-[(thien-2-ylcarbonyl)amino]-1H-thieno[2,3-c]pyrazole-5-carboxamide] |
| 5 | < 20 | 6 | CC(C)(NC(=O)c1cc2c(NC(=O)c3ccc(N4CCOCC4)cc3)n[nH]c2s1)c1ccccc1 [Compound 1, N-(1-methyl-1-phenylethyl)-3-[(4-morpholin-4-ylbenzoyl)amino]-1H-thieno[2,3-c]pyrazole-5-carboxamide] |
| 6 | < 20 | 35 | C[C@@H](NC(=O)c1cc2c(NC(=O)c3ccc(N4CCOCC4)cc3)n[nH]c2s1)c1ccc(F)cc1 [Compound 3, N-[(1R)-1-(4-fluorophenyl)ethyl]-3-[(4-morpholin-4-ylbenzoyl)amino]-1H-thieno[2,3-c]pyrazole-5-carboxamide] |
| 3 | < 20 | 23 | O=C(Nc1n[nH]c2sc(C(=O)NC3(c4ccccc4)CC3)cc12)c1ccc(N2CCOCC2)cc1 [Compound 2, 3-[(4-morpholin-4-ylbenzoyl)amino]-N-(1-phenylcyclopropyl)-1H-thieno[2,3-c]pyrazole-5-carboxamide] |
| 18 |  | 184 | O=C(Nc1n[nH]c2sc(C(=O)NCc3ccccc3)cc12)c1ccc(N2CCOCC2)cc1 [Reference compound, N-benzyl-3-[(4-morpholin-4-ylbenzoyl)amino]-1H-thieno[2,3-c]pyrazole-5-carboxamide, reference compound] |
| 9 | < 20 | 30 | O=C(Nc1n[nH]c2sc(C(=O)N[C@H](CN3CCCC3)c3ccccc3)cc12)c1ccc(N2CCOCC2)cc1 [Compound 5, 3-[(4-morpholin-4-ylbenzoyl)amino]-N-[(1S)-1-phenyl-2-pyrrolidin-1-ylethyl]-1H-thieno[2,3-c]pyrazole-5-carboxamide] |
|  | < 20 |  | CN1CCN(Cc2ccc(C(=O)Nc3n[nH]c4sc(C(=O)NC(C)(C)c5ccccc5)cc34)cc2)CC1 [Compound 27, N-(1-methyl-1-phenylethyl)-3-({4-[(4-methylpiperazin-1-yl)methyl]benzoyl}amino)-1H-thieno[2,3-c]pyrazole-5-carboxamide] |
|  | < 20 |  | CCC(CC)(NC(=O)c1cc2c(NC(=O)c3ccc(N4CCN(C)CC4)cc3)n[nH]c2s1)c1ccccc1 [Compound 33, N-(1-ethyl-1-phenylpropyl)-3-{[4-(4-methylpiperazin-1-yl)benzoyl]amino}-1H-thieno[2,3-c]pyrazole-5-carboxamide] |
|  | < 20 |  | CC(C)(NC(=O)c1cc2c(NC(=O)c3ccc(CN4CCCCC4)cc3)n[nH]c2s1)c1cccc(F)c1 [Compound 51, 3-(4-Piperidin-1-ylmethyl-benzoylamino)-1H-thieno[2,3-c]pyrazole-5-carboxylic acid [1-(3-fluoro-phenyl)-1-methyl-ethyl]-amide] |
|  | < 20 |  | CN1CCN(c2ccc(C(=O)Nc3n[nH]c4sc(C(=O)NC(C)(C)c5ccc(F)cc5)cc34)cc2)CC1 [Compound 139, 3-[4-(4-Methyl-piperazin-1-yl)-benzoylamino]-1H-thieno[2,3-c]pyrazole-5-carboxylic acid [1-(4-fluoro-phenyl)-1-methyl-ethyl]amide] |
|  | < 20 |  | CC(C)(NC(=O)c1cc2c(NC(=O)c3ccc(CN4CCCC4)cc3)n[nH]c2s1)c1ccc(F)cc1 [Compound 58, 3-(4-Pyrrolidin-1-ylmethyl-benzoylamino)-1H-thieno[2,3-c]pyrazole-5-carboxylic acid [1-(4-fluoro-phenyl)-1-methyl-ethyl]-amide] |
|  | < 20 |  | CC[C@@H](NC(=O)c1cc2c(NC(=O)c3cccs3)n[nH]c2s1)c1ccccc1 [Compound 20, N-[(1R)-1-phenylpropyl]-3-[(thien-2-ylcarbonyl)amino]-1H-thieno[2,3-c]pyrazole-5-carboxamide] |
|  | < 20 |  | Cn1cccc1C(=O)Nc1n[nH]c2sc(C(=O)NC3(c4ccccc4)CC3)cc12 [Compound 22, 3-{[(1-methyl-1H-pyrrol-2-yl)carbonyl]amino}-N-(1-phenylcyclopropyl)-1H-thieno[2,3-c]pyrazole-5-carboxamide] |
|  | < 20 |  | CN1CCN(c2ccc(C(=O)Nc3n[nH]c4sc(C(=O)N[C@H](CN5CCOCC5)c5ccccc5)cc34)cc2)CC1 [Compound 31, 3-{[4-(4-methylpiperazin-1-yl)benzoyl]amino}-N-[(1S)-2-morpholin-4-yl-1-phenylethyl]-1H-thieno[2,3-c]pyrazole-5-carboxamide] |
|  | < 20 |  | Cn1cccc1C(=O)Nc1n[nH]c2sc(C(=O)NC(C)(C)c3ccccc3)cc12 [Compound 21, N-(1-methyl-1-phenylethyl)-3-{[(1-methyl-1H-pyrrol-2-yl)carbonyl]amino}-1H-thieno[2,3-c]pyrazole-5-carboxamide] |
|  | < 20 |  | O=C(Nc1n[nH]c2sc(C(=O)N[C@H](CN3CCCC3)c3ccccc3)cc12)c1cccs1 [Compound 19, N-[(1S)-1-phenyl-2-pyrrolidin-1-ylethyl]-3-[(thien-2-ylcarbonyl)amino]-1H-thieno[2,3-c]pyrazole-5-carboxamide] |
|  | < 20 |  | C[C@@H](NC(=O)c1cc2c(NC(=O)c3ccc(F)cc3)n[nH]c2s1)c1ccc(F)cc1 [Compound 11, 3-[(4-fluorobenzoyl)amino]-N-[(1R)-1-(4-fluorophenyl)ethyl]-1H-thieno[2,3-c]pyrazole-5-carboxamide] |
|  | < 20 |  | CC(C)(NC(=O)c1cc2c(NC(=O)c3ccc(CN4CCC(F)CC4)cc3)n[nH]c2s1)c1ccccc1 [Compound 46] |
|  | < 20 |  | CC(C)(NC(=O)c1cc2c(NC(=O)c3cccs3)n[nH]c2s1)c1ccccc1F [Compound 123, 3-[(Thiophene-2-carbonyl)-amino]-1H-thieno[2,3-c]pyrazole-5-carboxylic acid [1-(2-fluoro-phenyl)-1-methyl-ethyl]-amide] |

| SMILES | IC50 (Aurora-2; [2]) [nM] | IC50 (Aurora-2; [3]) [nM] | IC50 [1] [nM] |
| --- | --- | --- | --- |
| C[C@@H](NC(=O)c1cc2c(NC(=O)c3ccc(N4CCN(C)CC4)cc3)n[nH]c2s1)c1ccccc1 [Compound 36, 3-{[4-(4-methylpiperazin-1-yl)benzoyl]amino}-N-[(1R)-1-phenylethyl]-1H-thieno[2,3-c]pyrazole-5-carboxamide] |  |  | 5 |
